In patent US9169260B2 (MERCK SHARP & DOHME CORP., priority 2011, dated 2015):

Target: GST tagged IRAK-4 (Homo sapiens (Human), UniProt Q9NWZ3)
Test: IRAK-4 Kinase Assay (IMAP fluorescence polarization)
Assay type: biochemical
Details: 100 μM ATP, 30 minutes at 25° C.
Experimental: The kinase activity of IRAK-4 is determined by its ability to catalyze the phosphorylation of a fluorescent polypeptide substrate. The extent of phosphorylation is measured using the IMAP technology (Molecular Devices) where the phosphorylated fluorescent substrate binds to the large M(III)-based nanoparticles which reduces the rotational speed of the substrate and thus increases its fluorescent polarization (FP).
20 μl reaction mixture contains 10 mM TriHCl, pH 7.2, 0.5 nM GST tagged IRAK-4 (SignalChem), 100 nM fluorescent peptide substrate (RP7030, Molecular Devices), 100 μM ATP, 1 mM DTT, 1 mM MgCl2, and 0.01% Tween 20. The reaction is initiated by the addition of ATP. After incubation for 30 minutes at 25° C., 60 μl of Progressive IMAP Reagent (Molecular Devices) is added to stop the reaction. Change in RP7030's FP is determined by a FP reader (Analyst HT, LH, BioSystems).

Sequence of GST tagged IRAK-4 (Q9NWZ3 whole entry): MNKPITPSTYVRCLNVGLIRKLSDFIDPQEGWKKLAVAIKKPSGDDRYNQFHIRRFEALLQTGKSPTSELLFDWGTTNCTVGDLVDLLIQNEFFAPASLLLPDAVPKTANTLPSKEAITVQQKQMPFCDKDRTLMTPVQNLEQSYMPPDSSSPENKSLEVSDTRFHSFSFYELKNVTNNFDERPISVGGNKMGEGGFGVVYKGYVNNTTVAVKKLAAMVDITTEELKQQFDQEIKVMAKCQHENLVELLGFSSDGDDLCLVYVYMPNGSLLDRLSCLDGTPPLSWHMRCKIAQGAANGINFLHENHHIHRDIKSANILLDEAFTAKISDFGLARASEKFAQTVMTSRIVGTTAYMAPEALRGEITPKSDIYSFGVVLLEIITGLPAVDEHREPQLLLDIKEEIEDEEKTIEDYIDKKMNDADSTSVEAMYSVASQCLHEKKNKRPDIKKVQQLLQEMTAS

Row | IC50 [µM] | SMILES
1 | < 0.1 | Cc1ccc(-n2nc(C3CCN(C(C)C)CC3)cc2NC(=O)c2cnn3cccnc23)cc1 [Example 37, N-(3-(1-isopropylpiperidin-4-yl)-1-(p-tolyl)-1H-pyrazol-5-yl)pyrazolo[1,5-a]pyrimidine-3-carboxamide]
2 | < 0.1 | Cc1ccc(-n2nc(C3CCN(C4CCC4)CC3)cc2NC(=O)c2cnn3cccnc23)cc1 [Example 38, N-(3-(1-cyclobutylpiperidin-4-yl)-1-(p-tolyl)-1H-pyrazol-5-yl)pyrazolo[1,5-a]pyrimidine-3-carboxamide]
3 | < 0.1 | Cc1ccc(-n2nc(C3CCN(C4CC4)CC3)cc2NC(=O)c2cnn3cccnc23)cc1 [Example 40, N-(3-(1-cyclopropylpiperidin-4-yl)-1-(p-tolyl)-1H-pyrazol-5-yl)pyrazolo[1,5-a]pyrimidine-3-carboxamide]
4 | < 0.1 | Cc1ccc(-n2nc(C3CCN(CC(F)(F)F)CC3)cc2NC(=O)c2cnn3cccnc23)cc1 [Example 41, N-(1-(p-tolyl)-3-(1-(2,2,2-trifluoroethyl)piperidin-4-yl)-1H-pyrazol-5-yl)pyrazolo[1,5-a]pyrimidine-3-carboxamide]
5 | < 0.1 | COc1ccc(-n2nc(C3CCN(C(C)C)CC3)cc2NC(=O)c2cnn3cccnc23)cc1 [Example 47, N-(3-(1-isopropylpiperidin-4-yl)-1-(4-methoxyphenyl)-1H-pyrazol-5-yl)pyrazolo[1,5-a]pyrimidine-3-carboxamide]
6 | < 0.1 | O=C(Nc1cc(C2CCN(C3CCC3)CC2)nn1-c1ccc(F)cc1F)c1cnn2cccnc12 [Example 49, N-(3-(1-cyclobutylpiperidin-4-yl)-1-(2,4-difluorophenyl)-1H-pyrazol-5-yl)pyrazolo[1,5-a]pyrimidine-3-carboxamide]
7 | < 0.1 | O=C(Nc1cc(C2CCN(C3CCC3)CC2)nn1-c1ccc(Cl)cc1F)c1cnn2cccnc12 [Example 51, N-(1-(4-chloro-2-fluorophenyl)-3-(1-cyclobutylpiperidin-4-yl)-1H-pyrazol-5-yl)pyrazolo[1,5-a]pyrimidine-3-carboxamide]
8 | < 0.1 | O=C(Nc1cc(C2CCNCC2)nn1-c1ccc(C2CC2)cc1)c1cnn2cccnc12 [Example 52, N-(1-(4-cyclopropylphenyl)-3-(piperidin-4-yl)-1H-pyrazol-5-yl)pyrazolo[1,5-a]pyrimidine-3-carboxamide]
9 | < 0.1 | CS(=O)(=O)N1CCC(c2cc(NC(=O)c3cnn4cccnc34)n(-c3ccc(C4CC4)cc3)n2)CC1 [Example 53, N-(1-(4-cyclopropylphenyl)-3-(1-(methylsulfonyl)piperidin-4-yl)-1H-pyrazol-5-yl)pyrazolo[1,5-a]pyrimidine-3-carboxamide]
10 | < 0.1 | CC(C)N1CCC(c2cc(NC(=O)c3cnn4cccnc34)n(-c3ccc(C4CC4)cc3)n2)CC1 [Example 55, N-(1-(4-cyclopropylphenyl)-3-(1-isopropylpiperidin-4-yl)-1H-pyrazol-5-yl)pyrazolo[1,5-a]pyrimidine-3-carboxamide]
11 | < 0.1 | Cc1ccc(-n2nc(C3CCNCC3)cc2NC(=O)c2cnn3cccnc23)c(F)c1 [Example 56, N-(1-(2-fluoro-4-methylphenyl)-3-(piperidin-4-yl)-1H-pyrazol-5-yl)pyrazolo[1,5-a]pyrimidine-3-carboxamide]
12 | < 0.1 | Cc1ccc(-n2nc(C3CCN(S(C)(=O)=O)CC3)cc2NC(=O)c2cnn3cccnc23)c(F)c1 [Example 57, N-(1-(2-fluoro-4-methylphenyl)-3-(1-(methylsulfonyl)piperidin-4-yl)-1H-pyrazol-5-yl)pyrazolo[1,5-a]pyrimidine-3-carboxamide]
13 | < 0.1 | Cc1ccc(-n2nc(C3CCN(C(C)C)CC3)cc2NC(=O)c2cnn3cccnc23)c(F)c1 [Example 58, N-(1-(2-fluoro-4-methylphenyl)-3-(1-isopropylpiperidin-4-yl)-1H-pyrazol-5-yl)pyrazolo[1,5-a]pyrimidine-3-carboxamide]
14 | < 0.1 | Cc1ccc(-n2nc(C3CCN(C4CCC4)CC3)cc2NC(=O)c2cnn3cccnc23)c(F)c1 [Example 59, N-(3-(1-cyclobutylpiperidin-4-yl)-1-(2-fluoro-4-methylphenyl)-1H-pyrazol-5-yl)pyrazolo[1,5-a]pyrimidine-3-carboxamide]
15 | < 0.1 | COc1ccc(-n2nc(C3CCNCC3)cc2NC(=O)c2cnn3cccnc23)c(F)c1 [Example 61, N-(1-(2-fluoro-4-methoxyphenyl)-3-(piperidin-4-yl)-1H-pyrazol-5-yl)pyrazolo[1,5-a]pyrimidine-3-carboxamide]
16 | < 0.1 | COc1ccc(-n2nc(C3CCN(C(C)C)CC3)cc2NC(=O)c2cnn3cccnc23)c(F)c1 [Example 62, N-(1-(2-fluoro-4-methoxyphenyl)-3-(1-isopropylpiperidin-4-yl)-1H-pyrazol-5-yl)pyrazolo[1,5-a]pyrimidine-3-carboxamide]

Same assay, conditions: 100 μM ATP, 30 minutes at 25° C.; μM

Row | IC50 [µM] | SMILES
17 | < 1 | Cc1ccc(-n2nc(C3CCN(C)CC3)cc2NC(=O)c2cnn3cccnc23)cc1 [Example 36, N-(3-(1-methylpiperidin-4-yl)-1-(p-tolyl)-1H-pyrazol-5-yl)pyrazolo[1,5-a]pyrimidine-3-carboxamide]
18 | < 1 | Cc1ccc(-n2nc(C3CCCNC3)cc2NC(=O)c2cnn3cccnc23)cc1 (stereo not shown) [Example 42, N-(3-(piperidin-3-yl)-1-(p-tolyl)-1H-pyrazol-5-yl)pyrazolo[1,5-a]pyrimidine-3-carboxamide]
19 | < 1 | Cc1ccc(-n2nc(C3CCCN(S(C)(=O)=O)C3)cc2NC(=O)c2cnn3cccnc23)cc1 (stereo not shown) [Example 43, N-(3-(1-(methylsulfonyl)piperidin-3-yl)-1-(p-tolyl)-1H-pyrazol-5-yl)pyrazolo[1,5-a]pyrimidine-3-carboxamide]
20 | < 1 | Cc1ccc(-n2nc(C3CCCN(S(=O)(=O)C4CC4)C3)cc2NC(=O)c2cnn3cccnc23)cc1 (stereo not shown) [Example 44, N-(3-(1-(cyclopropylsulfonyl)piperidin-3-yl)-1-(p-tolyl)-1H-pyrazol-5-yl)pyrazolo[1,5-a]pyrimidine-3-carboxamide]
21 | < 1 | Cc1ccc(-n2nc(CC3CCOCC3)cc2NC(=O)c2cnn3cccnc23)cc1 [Example 45, N-(3-((tetrahydro-2H-pyran-4-yl)methyl)-1-(p-tolyl)-1H-pyrazol-5-yl)pyrazolo[1,5-a]pyrimidine-3-carboxamide]
22 | < 1 | Cc1ccc(-n2nc(C3CCOCC3)cc2NC(=O)c2cnn3cccnc23)cc1 [Example 46, N-(3-(tetrahydro-2H-pyran-4-yl)-1-(p-tolyl)-1H-pyrazol-5-yl)pyrazolo[1,5-a]pyrimidine-3-carboxamide]
23 | < 1 | CN1CCC(c2cc(NC(=O)c3cnn4cccnc34)n(-c3ccc(F)cc3F)n2)CC1 [Example 48, N-(1-(2,4-difluorophenyl)-3-(1-methylpiperidin-4-yl)-1H-pyrazol-5-yl)pyrazolo[1,5-a]pyrimidine-3-carboxamide]
24 | < 1 | CN1CCC(c2cc(NC(=O)c3cnn4cccnc34)n(-c3ccc(Cl)cc3F)n2)CC1 [Example 50, N-(1-(4-chloro-2-fluorophenyl)-3-(1-methylpiperidin-4-yl)-1H-pyrazol-5-yl)pyrazolo[1,5-a]pyrimidine-3-carboxamide]
25 | < 1 | O=C(Nc1cc(C2CCN(S(=O)(=O)C3CC3)CC2)nn1-c1ccc(C2CC2)cc1)c1cnn2cccnc12 [Example 54, N-(1-(4-cyclopropylphenyl)-3-(1-(cyclopropylsulfonyl)piperidin-4-yl)-1H-pyrazol-5-yl)pyrazolo[1,5-a]pyrimidine-3-carboxamide]
